Test results published in PubChem BioAssay AID2060502 (Molecular Pharmacology Branch, DTP, NCI, 2025).

System: 885724-159-R-J1-PDC complex spheroid viability
Assay: Anticancer human tumor 885724-159-R-J1-PDC patient-derived pancreatic adenocarcinoma cell line growth inhibition [GQUAD]
Settings: for IC50: curve of first compound; for viability, T/C: stronger effect = lower value
Procedure, shortened: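 Multi-cell-type spheroids of tumor cells with HUVEC and mesenchymal stem cells, treated with drug combinations. Concentrations descend in half-log steps from near clinical Cmax, or from 10 microM where Cmax is unknown; viability read-out.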

[1] = second compound 0.0316 µM, first compound 0.0316 µM
[2] = second compound 0.0316 µM, first compound 0.1 µM
[3] = second compound 0.0316 µM, first compound 0.316 µM
[4] = second compound 0.0316 µM, first compound 1 µM
[5] = second compound 0.0316 µM, first compound 3.16 µM
[6] = second compound 0.0316 µM, first compound 10 µM
[7] = second compound 0.1 µM, first compound 0.0316 µM
[8] = second compound 0.1 µM, first compound 0.1 µM
[9] = second compound 0.1 µM, first compound 0.316 µM
[10] = second compound 0.1 µM, first compound 1 µM
[11] = second compound 0.1 µM, first compound 3.16 µM
[12] = second compound 0.1 µM, first compound 10 µM
[13] = second compound 0.316 µM, first compound 0.0316 µM
[14] = second compound 0.316 µM, first compound 0.1 µM
[15] = second compound 0.316 µM, first compound 0.316 µM
[16] = second compound 0.316 µM, first compound 1 µM
[17] = second compound 0.316 µM, first compound 3.16 µM
[18] = second compound 0.316 µM, first compound 10 µM
[19] = second compound 1 µM, first compound 0.0316 µM
[20] = second compound 1 µM, first compound 0.1 µM
[21] = second compound 1 µM, first compound 0.316 µM
[22] = second compound 1 µM, first compound 1 µM
[23] = second compound 1 µM, first compound 3.16 µM
[24] = second compound 1 µM, first compound 10 µM
[25] = second compound 3.16 µM, first compound 0.0316 µM
[26] = second compound 3.16 µM, first compound 0.1 µM
[27] = second compound 3.16 µM, first compound 0.316 µM
[28] = second compound 3.16 µM, first compound 1 µM
[29] = second compound 3.16 µM, first compound 3.16 µM
[30] = second compound 3.16 µM, first compound 10 µM
[31] = second compound 10 µM, first compound 0.0316 µM
[32] = second compound 10 µM, first compound 0.1 µM
[33] = second compound 10 µM, first compound 0.316 µM
[34] = second compound 10 µM, first compound 1 µM
[35] = second compound 10 µM, first compound 3.16 µM
[36] = second compound 10 µM, first compound 10 µM
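Also: spheroids exposed to agents for seven days before readout.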
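For viability, T/C in this document: percent of vehicle control viability where 100% = DMSO wells.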

`COc1ccc([C@@H](O)c2cc(-c3ncnc4cc(N5CCOCC5)ccc34)c(F)cc2Cl)nn1` + CN(C)c1ccc(Nc2c3ccc(NC(=O)CCN4CCCC4)cc3nc3cc(NC(=O)CCN4CCCC4)ccc23)cc1 was tested, and the IC50 (second compound 0.0316 µM) was 6.35 µM, the IC50 (second compound 0.1 µM) was 4.79 µM and the IC50 (second compound 0.316 µM) was 5.21 µM. It also gave an IC50 (second compound 1 µM) of 3.02 µM, an IC50 (second compound 3.16 µM) of 3.14 µM and an IC50 (second compound 10 µM) of 2.73 µM. The viability, T/C [1] was 88.5%, the viability, T/C [2] was 89% and the viability, T/C [3] was 79.8%. The viability, T/C [4] was 85.3%, the viability, T/C [5] was 58.4% and the viability, T/C [6] was 44.6%. For the same compound, the viability, T/C [7] was 95.7%, the viability, T/C [8] was 90.5% and the viability, T/C [9] was 95.7%. The viability, T/C [10] was 73.5%, the viability, T/C [11] was 59% and the viability, T/C [12] was 36.9%. It also gave a viability, T/C [13] of 89.3%, a viability, T/C [14] of 82.3% and a viability, T/C [15] of 79.2%. For the same compound, the viability, T/C [16] was 70.7%, the viability, T/C [17] was 62.8% and the viability, T/C [18] was 36.3%. For the same compound, the viability, T/C [19] was 78.9%, the viability, T/C [20] was 84.1% and the viability, T/C [21] was 82.7%. For the same compound, the viability, T/C [22] was 70.2%, the viability, T/C [23] was 49.6% and the viability, T/C [24] was 30.2%. The viability, T/C [25] was 71.6%, the viability, T/C [26] was 70.9% and the viability, T/C [27] was 73.7%. The viability, T/C [28] was 60.4%, the viability, T/C [29] was 50.9% and the viability, T/C [30] was 29.6%. It also gave a viability, T/C [31] of 72.9%, a viability, T/C [32] of 81.5% and a viability, T/C [33] of 69.5%. It also gave a viability, T/C [34] of 62.2%, a viability, T/C [35] of 49% and a viability, T/C [36] of 25.2%.

Work on `CC(C)n1c(=O)n(C)c2cnc3cc(F)c(-c4ccc(OCCCN5CCCCC5)nc4)cc3c21` + CN(C)c1ccc(Nc2c3ccc(NC(=O)CCN4CCCC4)cc3nc3cc(NC(=O)CCN4CCCC4)ccc23)cc1 yielded an IC50 (second compound 0.0316 µM) of over 10 µM, an IC50 (second compound 0.1 µM) of over 10 µM and an IC50 (second compound 0.316 µM) of over 10 µM. It also gave an IC50 (second compound 1 µM) of over 10 µM, an IC50 (second compound 3.16 µM) of 7.97 µM and an IC50 (second compound 10 µM) of 1.2 µM. It also gave a viability, T/C [1] of 105%, a viability, T/C [2] of 111% and a viability, T/C [3] of 100%. For the same compound, the viability, T/C [4] was 91.7%, the viability, T/C [5] was 97% and the viability, T/C [6] was 56%. For the same compound, the viability, T/C [7] was 109%, the viability, T/C [8] was 107% and the viability, T/C [9] was 112%. The viability, T/C [10] was 101%, the viability, T/C [11] was 88.2% and the viability, T/C [12] was 68.2%. For the same compound, the viability, T/C [13] was 107%, the viability, T/C [14] was 101% and the viability, T/C [15] was 92.2%. It also gave a viability, T/C [16] of 91.3%, a viability, T/C [17] of 85.2% and a viability, T/C [18] of 56.2%. It also gave a viability, T/C [19] of 92.6%, a viability, T/C [20] of 83.4% and a viability, T/C [21] of 101%. It also gave a viability, T/C [22] of 82.7%, a viability, T/C [23] of 74.5% and a viability, T/C [24] of 54.3%. It also gave a viability, T/C [25] of 83.7%, a viability, T/C [26] of 80.2% and a viability, T/C [27] of 86.4%. For the same compound, the viability, T/C [28] was 64.1%, the viability, T/C [29] was 66.6% and the viability, T/C [30] was 46%. The viability, T/C [31] was 78.7%, the viability, T/C [32] was 84.5% and the viability, T/C [33] was 60.3%. The viability, T/C [34] was 55.1%, the viability, T/C [35] was 33.3% and the viability, T/C [36] was 7.2%.

`CC1COCCN1c1cc(C2(O)CC3CCC(C2)O3)c2cnn(-c3ccn[nH]3)c2n1` (stereo unspecified) + Cc1[nH]c2ccc(F)cc2c1-c1nc2c3cccnc3c3ncccc3c2[nH]1 gave an IC50 (second compound 0.0316 µM) of 1.89 µM, an IC50 (second compound 0.1 µM) of 1.2 µM and an IC50 (second compound 0.316 µM) of 0.865 µM. The IC50 (second compound 1 µM) was 0.432 µM, the IC50 (second compound 3.16 µM) was under 0.0316 µM and the IC50 (second compound 10 µM) was 0.512 µM. The viability, T/C [1] was 97.7%, the viability, T/C [2] was 77.5% and the viability, T/C [3] was 68.3%. For the same compound, the viability, T/C [4] was 55.2%, the viability, T/C [5] was 46% and the viability, T/C [6] was 37.8%. It also gave a viability, T/C [7] of 96.6%, a viability, T/C [8] of 88% and a viability, T/C [9] of 74.1%. The viability, T/C [10] was 50.1%, the viability, T/C [11] was 42.7% and the viability, T/C [12] was 37.7%. It also gave a viability, T/C [13] of 91%, a viability, T/C [14] of 79% and a viability, T/C [15] of 62.4%. For the same compound, the viability, T/C [16] was 47.3%, the viability, T/C [17] was 41.6% and the viability, T/C [18] was 35.5%. For the same compound, the viability, T/C [19] was 79.5%, the viability, T/C [20] was 66% and the viability, T/C [21] was 54.2%. The viability, T/C [22] was 38.1%, the viability, T/C [23] was 37.4% and the viability, T/C [24] was 25.4%. The viability, T/C [25] was 41.2%, the viability, T/C [26] was 29.9% and the viability, T/C [27] was 41.1%. For the same compound, the viability, T/C [28] was 22.6%, the viability, T/C [29] was 20.1% and the viability, T/C [30] was 8.51%. The viability, T/C [31] was 69.6%, the viability, T/C [32] was 69% and the viability, T/C [33] was 51%. For the same compound, the viability, T/C [34] was 44.4%, the viability, T/C [35] was 33.1% and the viability, T/C [36] was 24.1%.
